Several values for one entry are separate records, joined by “and”; a condition that tells them apart may be missing. Identical values can stand only once. Like-named read-outs stand apart in the source and are kept apart here.
System: rgRSV224, an engineered RSV strain that encodes for eGFP
Format: cell-based
Method: To evaluate their combined antiviral effect against RSV, in vitro combination studies were performed with JNJ-53718678 (“compound A”) and various compounds with different mechanisms-of-action (“compound B”). In short, 9 concentrations of Compound A were combined with 6 or 7 concentrations of a certain compound B. HeLa cells were infected with rgRSV224, an engineered RSV strain that encodes for eGFP (Hallak L K, Spillmann D, Collins P L, Peeples M E. Glycosaminoglycan sulfation requirements for respiratory syncytial virus infection; Journal of Virology (2000), 74(22), 10508-13), in the presence of various concentrations of compound A and compound B individually or in combination.
Compound stock solutions were 5 mM in 100% DMSO, with following exceptions: ribavirin, 20 mM; A 60444, 10 mM; CR9501, 141 μM in PBS; palivizumab, 156 μM in PBS; MDT 637, 100 μM in methanol. First, the compounds were serially diluted in 3-fold dilution series in DMSO; CR9501 and palivizumab were serially diluted in cell culture medium, and MDT 637 in methanol. The concentration series were diluted 100-fold in cell culture medium to achieve a combination matrix. 10 μL of these compound solutions were transferred to black 384-well clear-bottom tissue-culture treated plates. Next, 10 μL of a […] HeLa cell suspension was added to achieve 3000 cells per well. Finally, 10 μL of diluted virus stock was added to achieve an MOI of 1. The final DMSO concentration of all wells was 0.5% DMSO, except for the MDT 637 experiment where it was 0.25% DMSO+0.25% methanol. Each combination of compound concentrations was tested in 4 replicates on 3 separate plates, resulting in a total of 12 replicates. The plates were incubated for 3 days at 37° C. in a humidified atmosphere at 5% CO2. The GFP signal was measured with PerkinElmer EnVision apparatus using a 405 nm filter.
The method of Harbron (Statistics in Medicine, 2010, DOI:10.1002/sim3916) was used to assess synergy. Using the Loewe definition, two compounds are characterized as being additive, synergistic or antagonistic by:
where d1 and d2 represent the doses of the two compounds that in combination produce an effect y, and Dy,1 and Dy,2 represent the doses of the two compounds that produce the same effect, y, when administered as a monotherapy. A 3PL model (3-parameter log-logistic model) was used for the monotherapy dose-response data, where the baseline response was fixed at one.
Following Harbron's approach, the following models were fitted to the data: • “Additive”: assuming no interaction between the two compounds • “Uniform”: assuming a constant interaction index τ across all dose combinations • “Linear A”: assuming the interaction index linearly depends on the log 10 dose of compound A: z=τ1+τ2 log 10(dA) • “Separate A”: assuming the interaction index τ takes a separate value for each dose of compound A The latter two models were also considered for compound B: • “Linear B”: assuming the interaction index linearly τ depends on the log 10 dose of compound B: τ=τ1+τ2 log 10(dB) • “Separate B”: assuming the interaction index τ takes a separate value for each dose of compound B

For Cc1cnc(N2CC3(CCOCC3)C2)c(C(=O)Nc2ccc(C(=O)N3CCc4cc(C(=O)Nc5c(C)cccc5F)sc4-c4ccccc43)cc2)c1 [pulmocide compound, N-(2-fluoro-6-methylphenyl)-6-(4-(5-methyl-2-(7-oxa-2-azaspiro[3.5]nonan-2-yl)nicotinamido)benzoyl)-5,6-dihydro-4H-benzo[b]thieno[2,3-d]azepine-2-carboxamide, reference compound], the “normalized GFP signal” value was 1.04, the “normalized GFP signal” value (A = 0, B (pulmocide compound) = 0.058) was 0.99 and the “normalized GFP signal” value (A = 0, B (pulmocide compound) = 0.17) was 0.99. The “normalized GFP signal” value (A = 0, B (pulmocide compound) = 1.6) was 0.91, the “normalized GFP signal” value (A = 0, B (pulmocide compound) = 4.7) was 0.20 and the “normalized GFP signal” value (A = 0, B (pulmocide compound) = 14) was 0.02. The “normalized GFP signal” value (A = 0, B (pulmocide compound) = 42) was 0.02.
In the case of “palivizumab: monoclonal antibody CAS 188039-54-5”, the “normalized GFP signal” value (A = 0, B (palivizumab) = 0.0061) is reported as 1.05, the “normalized GFP signal” value (A = 0, B (palivizumab) = 0.018) is reported as 1.01 and the “normalized GFP signal” value (A = 0, B (palivizumab) = 0.055) is reported as 0.97. The “normalized GFP signal” value (A = 0, B (palivizumab) = 0.165) was 1.01, the “normalized GFP signal” value (A = 0, B (palivizumab) = 0.494) was 0.89 and the “normalized GFP signal” value (A = 0, B (palivizumab) = 1.482) was 0.33. For the same compound, the “normalized GFP signal” value (A = 0, B (palivizumab) = 4.447) was 0.06.
For Cc1nnnn1/N=C/c1ccc(O)c(C(c2ccc(O)cc2)c2cc(/C=N/n3nnnc3C)ccc2O)c1 [MDT-637, reference compound], the “normalized GFP signal” value was 0.99 and 0.95, the “normalized GFP signal” value (A = 0, B (MDT-637) = 0.038) was 1.01 and the “normalized GFP signal” value (A = 0, B (MDT-637) = 1) was 0.93. For the same compound, the “normalized GFP signal” value (A = 0, B (MDT-637) = 3.1) was 0.75, the “normalized GFP signal” value (A = 0, B (MDT-637) = 9.3) was 0.14 and the “normalized GFP signal” value (A = 0, B (MDT-637) = 28) was 0.01.
For O=C(NC1CC1)c1cc2c(s1)-c1ccccc1N(C(=O)c1ccc(NC(=O)c3cccnc3N3CCC4(CC3)COC4)cc1)CC2 [AZ-27, N-cyclopropyl-5,6-dihydro-6-[4-[[[2-(2-oxa-7-azaspiro [3.5]non-7-yl)-3-pyridinyl]carbonyl]-amino]benzoyl]-4H-thieno [3,2-d][1]benzazepine-2-carboxamide, reference compound], the “normalized GFP signal” value (A = 0, B (AZ-27) = 17) was 1.03, the “normalized GFP signal” value (A = 0, B (AZ-27) = 51) was 1.00 and the “normalized GFP signal” value (A = 0, B (AZ-27) = 154) was 0.53. For the same compound, the “normalized GFP signal” value (A = 0, B (AZ-27) = 463) was 0.07, the “normalized GFP signal” value (A = 0, B (AZ-27) = 1389) was 0.01 and the “normalized GFP signal” value (A = 0, B (AZ-27) = 4167) was 0.00.
For COc1ccc(CCNCCCN2C(=O)c3c(cc(N)c4nc(-c5ccc(C)c([N+](=O)[O-])c5)[nH]c34)C(C)(C)C2=O)cc1OC [CAS 851658-10-1, 4-amino-8-[3-[[2-(3,4-dimethoxyphenyl)ethyl]amino]propyl]-6,6-dimethyl-2-(4-methyl-3-nitrophenyl)-3H-imidazo[4,5-h]isoquinoline-7,9(6H,8H)-dione, reference compound], the “normalized GFP signal” value (A = 0, B (CAS 851658-10-1) = 1.9) was 0.99, the “normalized GFP signal” value (A = 0, B (CAS 851658-10-1) = 5.7) was 0.97 and the “normalized GFP signal” value (A = 0, B (CAS 851658-10-1) = 17) was 0.89. The “normalized GFP signal” value (A = 0, B (CAS 851658-10-1) = 51) was 0.74, the “normalized GFP signal” value (A = 0, B (CAS 851658-10-1) = 154) was 0.38 and the “normalized GFP signal” value (A = 0, B (CAS 851658-10-1) = 463) was 0.05. The “normalized GFP signal” value (A = 0, B (CAS 851658-10-1) = 1389) was 0.01.
In the case of NC(=O)c1ncn([C@@H]2O[C@H](CO)[C@@H](O)[C@H]2O)n1 [ribavirin, 1-β-D-ribofuranosyl-1H-1,2,4-triazole-3-carboxamide, reference compound], the “normalized GFP signal” value (A = 0, B (ribavirin) = 69) is reported as 1.00, the “normalized GFP signal” value (A = 0, B (ribavirin) = 206) is reported as 0.98 and the “normalized GFP signal” value (A = 0, B (ribavirin) = 617) is reported as 0.98. For the same compound, the “normalized GFP signal” value (A = 0, B (ribavirin) = 1852) was 0.97, the “normalized GFP signal” value (A = 0, B (ribavirin) = 5556) was 0.94 and the “normalized GFP signal” value (A = 0, B (ribavirin) = 16667) was 0.83. For the same compound, the “normalized GFP signal” value (A = 0, B (ribavirin) = 50000) was 0.13.

Reference: patent US10363253B2, “Combination products for the treatment of RSV” (priority 2016, dated 2019)
